Where two headings read alike, the source gives them in different places.
Tests used:
[1] = NIDDM patients; cited from earlier work
[2] = dietary; STZ-induced diabetic rats; cited from earlier work
[3] = person, Type 2 diabetes; metformin 1000 mg b.i.d.; combination after 3 months
[4] = person with Type 2 diabetes; metformin 500 mg b.i.d.; combination after 2 months
[5] = cited from earlier work
[6] = after 14 weeks, cited from earlier work
[7] = hypertensive obese non-diabetic women; cited from earlier work
Na/K ATPase = settings: catalytic cycle of Na/K ATPase; cited from earlier work
[8] = treatment periods of up to one year; cited from earlier work
[9] = rat, in vivo, po; cited from earlier work
[10] = cited from earlier work; remark: listed apart in the source

Compound: CC(=O)N[C@@H](CS)C(=O)O [NAC, N-acetylcysteine]
- reduction of apolipoprotein A1 [1]: over 20%
- development of peripheral neuropathy [2]: appeared to inhibit the development of peripheral neuropathy

Compound: CN(C)C(=N)NC(=N)N [Metformin alone, N,N-dimethylimidodicarbonimidicdiamide]
- HbA1c level [3]: 8.3
- Cholesterol [4]: 229
- Estimated Blood Sugar [4]: 200 mg/dL
- Fasting Blood Sugar [4]: 185 mg/dL
- HDL [4]: 52
- HbA1c level [4]: 9.7
- LDL [4]: 133
- Triglycerides [4]: 220
- HbA1c level after metformin therapy ([5]; after 29 weeks, alone or in combination with sulfonylurea, improved from 8.6%): 7.1%
- effect on serum lipids ([5]; moderately obese Type 2 diabetics): lowering mean fasting serum triglycerides, total cholesterol, and LDL cholesterol levels
- reduction of HbA1c ([6]; 500 mg daily): 0.9%
- reduction of HbA1c ([6]; 2000 mg daily): 2.0%
- blood pressure, plasma insulin, fibrinogen [7]: decreased blood pressure, fasting and glucose-stimulated plasma insulin fibrinogen

Compound: [O]=[V]([O-])([O-])[O-] [vanadate]
- concentration inhibiting formation of EP (Na/K ATPase): less than 1 micromolar

Compound: O=S(=O)([O-])[O-].[O]=[V+2] [vanadyl sulfate]
- apparent toxicity [8]: does not appear not to be associated with any apparent toxicity

Compound: chromium picolinate
- rate of absorption relative to chromium trichloride [9]: about four times greater than chromium trichloride

Compound: Cc1c(C)c2c(c(C)c1O)CC[C@@](C)(CCC[C@H](C)CCC[C@H](C)CCCC(C)C)O2 [vitamin E, free 2R,4′R,8′R-alpha-tocopherol]
- non-fatal myocardial infarction ([10]; 400 or 800 I.U. daily, patients with coronary artery disease): dramatic and significant reduction of non-fatal myocardial infarction
- side effects versus placebo ([10]; 400 or 800 I.U.): no difference between the alpha-tocopherol treatment (400 or 800 I.U.) or placebo groups for side effects
